Laboratory results reported in ChEMBL document CHEMBL4130444, “1,4-Naphthoquinones as inhibitors of Itch, a HECT domain-E3 ligase, and tumor growth suppressors in multiple myeloma” (Eur J Med Chem, 2017).

Legend:
HCT-116 = assay: Antiproliferative activity against human HCT116 cells incubated for 48 hrs by SRB assay; format: functional; conditions: HCT-116, 48 h
MDA-MB-231 = assay: Antiproliferative activity against human MDA-MB-231 cells incubated for 48 hrs by SRB assay; format: functional; conditions: MDA-MB-231, 48 h

GI50 (HCT-116): 6.8 µM | GI50 (MDA-MB-231): > 10 µM
SMILES: O=C(Nc1ccc2ncccc2c1)c1ccc(CNC2=C(Cl)C(=O)c3ccccc3C2=O)cc1
